Experimental findings from ChEMBL document CHEMBL5465560, “Selectivity Literature for EUbOPEN Chemogenomic Library” (2024) are described below.

The target in assay [1] is Mitogen-activated protein kinase kinase kinase 9 (Homo sapiens) (UniProt P80192). The note with it: at 10 µM.
Assay [2] deals with T1, Mitogen-activated protein kinase kinase kinase kinase 3 (Homo sapiens) (UniProt Q8IVH8).
T1 sequence (whole entry): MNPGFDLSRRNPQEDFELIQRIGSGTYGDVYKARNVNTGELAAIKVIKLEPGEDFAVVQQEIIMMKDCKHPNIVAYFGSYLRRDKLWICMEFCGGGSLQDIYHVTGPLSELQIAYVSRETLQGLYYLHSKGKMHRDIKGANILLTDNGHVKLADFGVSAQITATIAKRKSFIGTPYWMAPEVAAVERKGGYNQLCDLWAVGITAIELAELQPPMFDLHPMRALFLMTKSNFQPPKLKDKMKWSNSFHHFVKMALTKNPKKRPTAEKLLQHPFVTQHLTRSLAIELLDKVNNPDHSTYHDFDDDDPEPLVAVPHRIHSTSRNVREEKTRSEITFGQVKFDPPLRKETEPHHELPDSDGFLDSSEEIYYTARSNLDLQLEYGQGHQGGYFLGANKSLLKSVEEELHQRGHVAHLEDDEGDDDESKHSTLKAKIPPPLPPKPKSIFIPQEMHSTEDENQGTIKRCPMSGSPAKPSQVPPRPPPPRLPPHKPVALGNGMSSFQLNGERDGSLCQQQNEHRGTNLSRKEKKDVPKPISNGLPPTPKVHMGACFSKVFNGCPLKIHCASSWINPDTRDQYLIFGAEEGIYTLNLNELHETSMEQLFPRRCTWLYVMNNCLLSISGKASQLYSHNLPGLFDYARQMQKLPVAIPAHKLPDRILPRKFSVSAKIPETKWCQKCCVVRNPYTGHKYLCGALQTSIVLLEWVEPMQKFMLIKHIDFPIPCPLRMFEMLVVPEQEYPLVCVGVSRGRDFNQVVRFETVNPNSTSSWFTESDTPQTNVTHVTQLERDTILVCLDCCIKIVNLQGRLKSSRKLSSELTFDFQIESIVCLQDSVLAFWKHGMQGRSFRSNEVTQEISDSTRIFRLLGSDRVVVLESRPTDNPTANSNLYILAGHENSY
Kind of assay: Selectivity interaction (KinomeScan (DiscoverX)) EUB0001079a MAP4K3. The note with it: at 1 µM.

The target in assay [3] is T2, Serine/threonine-protein kinase Nek1 (Homo sapiens) (UniProt Q96PY6).
T2 sequence (whole entry): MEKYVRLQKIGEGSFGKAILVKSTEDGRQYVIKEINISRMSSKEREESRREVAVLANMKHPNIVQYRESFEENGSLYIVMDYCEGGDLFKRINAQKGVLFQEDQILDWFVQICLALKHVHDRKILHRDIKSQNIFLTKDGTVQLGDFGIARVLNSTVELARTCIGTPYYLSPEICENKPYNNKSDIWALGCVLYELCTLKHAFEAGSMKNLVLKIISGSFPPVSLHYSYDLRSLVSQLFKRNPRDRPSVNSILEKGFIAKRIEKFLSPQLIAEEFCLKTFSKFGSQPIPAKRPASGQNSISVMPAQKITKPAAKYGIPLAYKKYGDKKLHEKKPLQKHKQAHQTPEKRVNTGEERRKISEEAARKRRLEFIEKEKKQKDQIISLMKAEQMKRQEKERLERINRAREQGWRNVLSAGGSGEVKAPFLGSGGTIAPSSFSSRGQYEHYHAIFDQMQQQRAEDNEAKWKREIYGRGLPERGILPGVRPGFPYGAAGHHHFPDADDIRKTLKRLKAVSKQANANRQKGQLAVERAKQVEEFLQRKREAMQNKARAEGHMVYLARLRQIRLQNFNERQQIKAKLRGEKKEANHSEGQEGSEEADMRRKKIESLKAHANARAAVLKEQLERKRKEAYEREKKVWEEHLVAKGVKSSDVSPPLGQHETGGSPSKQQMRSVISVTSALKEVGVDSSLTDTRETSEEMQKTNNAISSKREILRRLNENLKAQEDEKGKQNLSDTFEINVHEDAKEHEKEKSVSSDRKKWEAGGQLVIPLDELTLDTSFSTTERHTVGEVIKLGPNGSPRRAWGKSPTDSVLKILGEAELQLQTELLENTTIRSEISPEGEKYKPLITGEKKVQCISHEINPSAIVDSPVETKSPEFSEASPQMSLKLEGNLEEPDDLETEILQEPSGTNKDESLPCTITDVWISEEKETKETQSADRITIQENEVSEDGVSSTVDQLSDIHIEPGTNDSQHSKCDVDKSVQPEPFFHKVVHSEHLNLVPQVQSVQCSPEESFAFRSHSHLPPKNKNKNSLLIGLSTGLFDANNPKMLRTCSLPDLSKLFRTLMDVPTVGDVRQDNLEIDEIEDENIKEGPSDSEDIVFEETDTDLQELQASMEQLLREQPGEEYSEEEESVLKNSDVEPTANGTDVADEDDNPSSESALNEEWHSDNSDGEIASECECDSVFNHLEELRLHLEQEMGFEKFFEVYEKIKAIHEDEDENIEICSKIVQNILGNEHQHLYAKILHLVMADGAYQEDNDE
Kind of assay: Selectivity interaction (Kinase panel (Eurofins)) EUB0001564a NEK1. The note with it: at 1 µM.

The target of assay [4] is G protein-coupled receptor kinase 4 (Homo sapiens) (UniProt P32298). The assay is described as follows: Selectivity interaction (Kinase panel (Invitrogen)) EUB0000639a GRK4. The note with it: at 200 nM.
Sequence of G protein-coupled receptor kinase 4 (Homo sapiens) (P32298 whole entry, looked up): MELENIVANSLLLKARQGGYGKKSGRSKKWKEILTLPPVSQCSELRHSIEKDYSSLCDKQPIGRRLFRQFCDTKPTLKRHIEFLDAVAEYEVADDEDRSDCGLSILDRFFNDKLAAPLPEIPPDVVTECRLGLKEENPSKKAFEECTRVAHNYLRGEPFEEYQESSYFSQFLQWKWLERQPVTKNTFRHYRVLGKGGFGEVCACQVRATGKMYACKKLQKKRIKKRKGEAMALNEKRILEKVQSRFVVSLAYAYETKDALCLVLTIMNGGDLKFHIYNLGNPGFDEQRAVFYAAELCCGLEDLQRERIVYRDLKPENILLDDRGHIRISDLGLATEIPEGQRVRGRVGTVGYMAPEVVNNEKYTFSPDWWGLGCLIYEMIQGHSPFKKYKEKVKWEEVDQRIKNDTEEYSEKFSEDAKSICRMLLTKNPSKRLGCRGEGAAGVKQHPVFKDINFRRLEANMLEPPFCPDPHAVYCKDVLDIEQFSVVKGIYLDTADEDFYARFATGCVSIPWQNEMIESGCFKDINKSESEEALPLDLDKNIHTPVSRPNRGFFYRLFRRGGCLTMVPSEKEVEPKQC

Sequence of Mitogen-activated protein kinase kinase kinase 9 (Homo sapiens) (P80192 whole entry, looked up): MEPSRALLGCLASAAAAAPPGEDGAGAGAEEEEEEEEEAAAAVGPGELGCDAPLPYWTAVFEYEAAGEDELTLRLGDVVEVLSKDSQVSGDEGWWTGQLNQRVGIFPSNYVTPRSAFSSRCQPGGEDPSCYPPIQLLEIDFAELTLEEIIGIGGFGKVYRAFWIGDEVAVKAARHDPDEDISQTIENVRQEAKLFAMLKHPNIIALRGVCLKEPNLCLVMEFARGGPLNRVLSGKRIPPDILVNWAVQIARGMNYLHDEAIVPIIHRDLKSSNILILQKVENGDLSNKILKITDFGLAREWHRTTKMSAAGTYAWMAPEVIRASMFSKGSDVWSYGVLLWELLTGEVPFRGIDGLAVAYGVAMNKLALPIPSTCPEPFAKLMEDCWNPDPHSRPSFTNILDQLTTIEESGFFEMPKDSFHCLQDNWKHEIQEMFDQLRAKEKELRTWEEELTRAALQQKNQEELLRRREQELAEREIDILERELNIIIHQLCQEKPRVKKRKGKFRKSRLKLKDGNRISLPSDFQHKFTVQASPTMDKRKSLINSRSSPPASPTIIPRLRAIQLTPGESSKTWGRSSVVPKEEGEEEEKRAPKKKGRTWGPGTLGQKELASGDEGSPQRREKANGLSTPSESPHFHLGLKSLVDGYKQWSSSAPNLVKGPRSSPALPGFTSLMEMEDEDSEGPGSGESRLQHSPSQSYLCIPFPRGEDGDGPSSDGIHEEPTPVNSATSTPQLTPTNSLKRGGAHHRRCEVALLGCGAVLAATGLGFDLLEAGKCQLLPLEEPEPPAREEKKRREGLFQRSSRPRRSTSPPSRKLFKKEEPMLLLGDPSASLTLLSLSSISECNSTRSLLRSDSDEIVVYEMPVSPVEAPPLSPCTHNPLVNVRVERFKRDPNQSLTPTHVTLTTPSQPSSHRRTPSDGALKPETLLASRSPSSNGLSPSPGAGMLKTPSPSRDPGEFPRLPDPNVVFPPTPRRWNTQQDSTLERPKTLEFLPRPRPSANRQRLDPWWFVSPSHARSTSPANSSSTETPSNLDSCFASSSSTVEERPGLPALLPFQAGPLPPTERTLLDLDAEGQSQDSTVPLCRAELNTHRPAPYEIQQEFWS

In turn, `Cc1cc([C@@H](C)Nc2ccccc2C(=O)O)c2nc(N3CCOCC3)cc(=O)n2c1` [AZD-6482] showed a % of control in assay [1] of 91%. In turn, `Nc1cnc(N2CCc3cc(S(=O)(=O)Nc4c(F)cc(Cl)cc4F)cc(N4CCCC4=O)c32)nc1` [TP-020n] showed a % of control in assay [2] of 93%. Turning to `CC[C@@H](Nc1c(C#N)c(-c2ccc(-c3cccc(C)c3F)cc2)nc2cnccc12)C(=O)O` [BAY-091], the % of inhibition in assay [3] turned out to be 24.4%. For `CC[C@@H]1[C@H](F)C(=O)N[C@@H]1COc1nccc2cc(C(N)=O)c(OC)cc12` [ZIMLOVISERTIB], the % of inhibition in assay [4] was -5.8%.
